Experimental data reported in BindingDB's records for doi:10.1124/jpet.106.103382 (Wyeth Research, 2006).

Key:
Cannabinoid receptor 1 = Cannabinoid receptor 1 (Homo sapiens, UniProt P21554)
Adenosine receptor A2b = biological target: T1, Adenosine receptor A2b (Bos taurus, UniProt Q1LZD0)
T1 sequence (Q1LZD0 whole entry): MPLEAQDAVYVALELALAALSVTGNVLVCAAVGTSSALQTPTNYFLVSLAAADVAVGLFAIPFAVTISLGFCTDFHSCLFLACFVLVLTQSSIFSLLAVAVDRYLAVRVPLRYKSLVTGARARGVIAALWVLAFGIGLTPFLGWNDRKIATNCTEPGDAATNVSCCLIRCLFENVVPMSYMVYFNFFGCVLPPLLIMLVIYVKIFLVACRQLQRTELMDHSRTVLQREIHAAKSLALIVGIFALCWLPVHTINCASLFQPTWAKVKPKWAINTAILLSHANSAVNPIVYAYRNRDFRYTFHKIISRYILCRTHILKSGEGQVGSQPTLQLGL

D(2) dopamine receptor = D(2) dopamine receptor (Homo sapiens, UniProt P14416)
[1] = biological target: T2, Muscarinic acetylcholine receptor M1 (Homo sapiens, UniProt P11229)
T2 sequence (P11229 whole entry): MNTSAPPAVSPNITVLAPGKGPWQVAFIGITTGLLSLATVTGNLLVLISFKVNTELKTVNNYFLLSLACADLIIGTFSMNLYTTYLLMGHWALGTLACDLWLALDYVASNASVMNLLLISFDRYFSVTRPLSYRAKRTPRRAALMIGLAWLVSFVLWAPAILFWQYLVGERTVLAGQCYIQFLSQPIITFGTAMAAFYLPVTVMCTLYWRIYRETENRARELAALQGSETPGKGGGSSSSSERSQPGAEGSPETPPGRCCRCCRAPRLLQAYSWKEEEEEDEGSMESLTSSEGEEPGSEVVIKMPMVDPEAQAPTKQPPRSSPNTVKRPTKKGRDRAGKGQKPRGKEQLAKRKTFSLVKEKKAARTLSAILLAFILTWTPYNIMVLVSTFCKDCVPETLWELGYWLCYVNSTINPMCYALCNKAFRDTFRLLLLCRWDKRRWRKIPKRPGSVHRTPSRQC

[2] = biological target: T3, Muscarinic acetylcholine receptor M5 (Homo sapiens, UniProt P08912)
T3 sequence (P08912 whole entry): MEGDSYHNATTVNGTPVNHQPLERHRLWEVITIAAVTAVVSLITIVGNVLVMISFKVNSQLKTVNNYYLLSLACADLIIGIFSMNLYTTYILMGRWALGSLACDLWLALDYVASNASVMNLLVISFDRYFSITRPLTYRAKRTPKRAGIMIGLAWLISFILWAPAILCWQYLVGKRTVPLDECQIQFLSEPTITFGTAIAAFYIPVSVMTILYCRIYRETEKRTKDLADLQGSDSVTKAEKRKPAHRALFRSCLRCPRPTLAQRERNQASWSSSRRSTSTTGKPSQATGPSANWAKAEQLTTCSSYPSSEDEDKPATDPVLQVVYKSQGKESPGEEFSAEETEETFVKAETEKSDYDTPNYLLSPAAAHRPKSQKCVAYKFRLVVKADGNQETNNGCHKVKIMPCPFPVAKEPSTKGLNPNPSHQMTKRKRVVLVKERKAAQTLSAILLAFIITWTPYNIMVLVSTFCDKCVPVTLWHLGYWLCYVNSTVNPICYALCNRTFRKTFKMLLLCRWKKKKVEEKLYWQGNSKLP

[3] = biological target: D(3) dopamine receptor (Homo sapiens) (UniProt P35462)
Adenosine receptor A1 = biological target: T4, Adenosine receptor A1 (Homo sapiens, UniProt P30542)
T4 sequence (P30542 whole entry): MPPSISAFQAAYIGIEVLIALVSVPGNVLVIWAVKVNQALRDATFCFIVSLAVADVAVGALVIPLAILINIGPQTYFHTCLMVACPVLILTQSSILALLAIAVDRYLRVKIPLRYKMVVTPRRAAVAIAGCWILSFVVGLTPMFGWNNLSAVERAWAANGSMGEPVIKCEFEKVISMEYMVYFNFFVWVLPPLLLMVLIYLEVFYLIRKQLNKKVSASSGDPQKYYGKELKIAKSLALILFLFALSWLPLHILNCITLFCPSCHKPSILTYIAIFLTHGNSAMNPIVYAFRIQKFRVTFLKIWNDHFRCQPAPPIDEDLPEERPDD

[4] = biological target: T5, Muscarinic acetylcholine receptor M2 (Homo sapiens, UniProt P08172)
T5 sequence (P08172 whole entry): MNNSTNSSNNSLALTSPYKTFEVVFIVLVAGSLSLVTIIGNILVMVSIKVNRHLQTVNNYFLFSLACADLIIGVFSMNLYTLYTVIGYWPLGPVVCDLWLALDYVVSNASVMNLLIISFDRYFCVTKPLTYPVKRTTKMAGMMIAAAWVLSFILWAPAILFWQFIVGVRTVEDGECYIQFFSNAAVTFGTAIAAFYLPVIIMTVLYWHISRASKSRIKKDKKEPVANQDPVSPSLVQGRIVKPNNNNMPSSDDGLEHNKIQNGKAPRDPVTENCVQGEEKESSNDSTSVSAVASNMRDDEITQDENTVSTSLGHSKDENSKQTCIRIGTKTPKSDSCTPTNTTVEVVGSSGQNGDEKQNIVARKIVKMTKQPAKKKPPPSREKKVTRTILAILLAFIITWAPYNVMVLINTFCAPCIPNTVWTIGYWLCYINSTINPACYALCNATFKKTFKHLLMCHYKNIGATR

[5] = biological target: Histamine H3 receptor (Homo sapiens) (UniProt Q9Y5N1)
[6] = biological target: Muscarinic acetylcholine receptor M3 (Homo sapiens, UniProt P20309)
Transporter = Transporter (Cavia porcellus, UniProt H0WCX4)
[7] = biological target: T6, Muscarinic acetylcholine receptor M4 (Homo sapiens, UniProt P08173)
T6 sequence (P08173 whole entry): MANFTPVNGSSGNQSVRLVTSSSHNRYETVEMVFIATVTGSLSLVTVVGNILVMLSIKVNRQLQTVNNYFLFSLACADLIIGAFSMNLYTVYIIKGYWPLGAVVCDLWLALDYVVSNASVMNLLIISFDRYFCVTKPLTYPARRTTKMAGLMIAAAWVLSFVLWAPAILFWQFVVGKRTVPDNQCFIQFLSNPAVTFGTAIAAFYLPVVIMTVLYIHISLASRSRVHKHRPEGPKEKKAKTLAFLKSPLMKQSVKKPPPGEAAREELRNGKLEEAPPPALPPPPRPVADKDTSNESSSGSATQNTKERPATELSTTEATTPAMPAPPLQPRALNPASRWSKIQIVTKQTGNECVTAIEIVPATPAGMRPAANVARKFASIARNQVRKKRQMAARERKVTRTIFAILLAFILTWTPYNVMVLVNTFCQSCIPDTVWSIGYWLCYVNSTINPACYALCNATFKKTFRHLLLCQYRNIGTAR

Cannabinoid receptor 2 = Cannabinoid receptor 2 (Homo sapiens, UniProt P34972)
[8] = biological target: Histamine H1 receptor (Homo sapiens) (UniProt P35367)
[9] = biological target: Histamine H2 receptor (Homo sapiens) (UniProt P25021)
D(1A) dopamine receptor = D(1A) dopamine receptor (Homo sapiens, UniProt P21728)
Chain of D(1A) dopamine receptor (P21728 whole entry): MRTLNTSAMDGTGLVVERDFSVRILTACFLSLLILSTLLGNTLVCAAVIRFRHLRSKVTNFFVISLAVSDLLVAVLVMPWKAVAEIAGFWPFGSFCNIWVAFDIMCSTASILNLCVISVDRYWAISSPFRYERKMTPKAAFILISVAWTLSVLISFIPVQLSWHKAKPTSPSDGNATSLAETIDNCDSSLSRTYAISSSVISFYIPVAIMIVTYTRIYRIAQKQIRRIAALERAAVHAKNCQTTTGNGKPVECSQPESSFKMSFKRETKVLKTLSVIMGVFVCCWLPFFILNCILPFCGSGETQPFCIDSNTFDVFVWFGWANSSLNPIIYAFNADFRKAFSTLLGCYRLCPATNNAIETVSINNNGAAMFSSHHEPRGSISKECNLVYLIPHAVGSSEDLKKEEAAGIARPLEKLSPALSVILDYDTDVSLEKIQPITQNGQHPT

Chain of D(2) dopamine receptor (P14416 whole entry): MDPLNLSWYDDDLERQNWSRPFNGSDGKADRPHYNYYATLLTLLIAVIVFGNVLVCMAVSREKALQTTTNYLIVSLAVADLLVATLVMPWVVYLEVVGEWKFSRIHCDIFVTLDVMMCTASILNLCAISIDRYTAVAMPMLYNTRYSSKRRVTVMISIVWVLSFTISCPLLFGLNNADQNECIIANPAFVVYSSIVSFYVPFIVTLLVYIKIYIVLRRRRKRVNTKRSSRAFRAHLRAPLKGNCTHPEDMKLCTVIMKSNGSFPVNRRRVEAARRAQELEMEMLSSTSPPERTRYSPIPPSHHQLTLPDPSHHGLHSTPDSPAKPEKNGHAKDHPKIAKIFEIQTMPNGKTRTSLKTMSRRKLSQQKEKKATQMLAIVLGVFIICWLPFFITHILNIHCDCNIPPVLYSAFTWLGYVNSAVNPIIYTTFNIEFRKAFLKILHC
Chain of Cannabinoid receptor 2 (P34972 whole entry): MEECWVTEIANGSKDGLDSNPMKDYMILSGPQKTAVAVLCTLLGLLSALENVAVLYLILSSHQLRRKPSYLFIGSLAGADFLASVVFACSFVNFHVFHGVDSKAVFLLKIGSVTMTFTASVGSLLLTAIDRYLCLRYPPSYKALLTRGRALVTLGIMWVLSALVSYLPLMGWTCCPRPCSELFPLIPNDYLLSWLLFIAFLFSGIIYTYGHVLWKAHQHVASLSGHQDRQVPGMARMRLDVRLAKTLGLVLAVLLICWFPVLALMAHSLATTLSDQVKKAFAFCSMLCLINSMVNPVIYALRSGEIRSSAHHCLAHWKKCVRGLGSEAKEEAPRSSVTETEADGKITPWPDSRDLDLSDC
Chain of Histamine H2 receptor (Homo sapiens) (P25021 whole entry, looked up): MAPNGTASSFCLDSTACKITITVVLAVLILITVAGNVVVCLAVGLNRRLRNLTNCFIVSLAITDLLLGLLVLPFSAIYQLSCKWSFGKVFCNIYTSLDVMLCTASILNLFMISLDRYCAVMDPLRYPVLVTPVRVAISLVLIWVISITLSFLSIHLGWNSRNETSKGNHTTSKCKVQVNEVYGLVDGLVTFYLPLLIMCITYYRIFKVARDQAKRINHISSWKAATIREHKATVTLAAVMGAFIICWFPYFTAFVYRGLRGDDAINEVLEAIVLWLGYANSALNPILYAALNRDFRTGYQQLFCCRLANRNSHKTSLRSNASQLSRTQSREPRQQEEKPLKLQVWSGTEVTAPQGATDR
Chain of D(3) dopamine receptor (Homo sapiens) (P35462 whole entry, looked up): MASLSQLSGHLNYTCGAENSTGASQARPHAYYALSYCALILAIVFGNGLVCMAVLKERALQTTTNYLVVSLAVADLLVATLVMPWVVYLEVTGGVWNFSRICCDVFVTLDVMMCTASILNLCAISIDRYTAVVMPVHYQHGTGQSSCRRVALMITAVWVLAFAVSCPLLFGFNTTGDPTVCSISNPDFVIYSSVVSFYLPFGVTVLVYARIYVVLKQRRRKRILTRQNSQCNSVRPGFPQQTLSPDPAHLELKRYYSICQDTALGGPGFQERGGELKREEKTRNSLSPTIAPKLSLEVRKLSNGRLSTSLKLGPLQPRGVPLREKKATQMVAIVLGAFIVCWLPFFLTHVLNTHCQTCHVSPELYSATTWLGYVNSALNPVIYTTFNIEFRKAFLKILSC
Chain of Cannabinoid receptor 1 (P21554 whole entry): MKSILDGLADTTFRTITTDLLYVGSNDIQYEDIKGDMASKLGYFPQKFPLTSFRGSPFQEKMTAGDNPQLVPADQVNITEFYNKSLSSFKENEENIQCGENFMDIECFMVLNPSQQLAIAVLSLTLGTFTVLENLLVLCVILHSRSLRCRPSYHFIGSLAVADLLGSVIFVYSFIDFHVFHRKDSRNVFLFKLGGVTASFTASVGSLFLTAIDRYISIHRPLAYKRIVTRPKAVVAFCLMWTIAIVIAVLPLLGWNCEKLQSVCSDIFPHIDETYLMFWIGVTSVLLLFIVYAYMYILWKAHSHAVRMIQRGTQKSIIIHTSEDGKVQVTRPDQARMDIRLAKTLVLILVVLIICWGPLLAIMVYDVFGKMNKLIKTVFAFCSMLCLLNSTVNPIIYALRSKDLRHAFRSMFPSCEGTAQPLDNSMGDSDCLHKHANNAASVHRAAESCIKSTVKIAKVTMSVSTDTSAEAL
Chain of Transporter (H0WCX4 whole entry): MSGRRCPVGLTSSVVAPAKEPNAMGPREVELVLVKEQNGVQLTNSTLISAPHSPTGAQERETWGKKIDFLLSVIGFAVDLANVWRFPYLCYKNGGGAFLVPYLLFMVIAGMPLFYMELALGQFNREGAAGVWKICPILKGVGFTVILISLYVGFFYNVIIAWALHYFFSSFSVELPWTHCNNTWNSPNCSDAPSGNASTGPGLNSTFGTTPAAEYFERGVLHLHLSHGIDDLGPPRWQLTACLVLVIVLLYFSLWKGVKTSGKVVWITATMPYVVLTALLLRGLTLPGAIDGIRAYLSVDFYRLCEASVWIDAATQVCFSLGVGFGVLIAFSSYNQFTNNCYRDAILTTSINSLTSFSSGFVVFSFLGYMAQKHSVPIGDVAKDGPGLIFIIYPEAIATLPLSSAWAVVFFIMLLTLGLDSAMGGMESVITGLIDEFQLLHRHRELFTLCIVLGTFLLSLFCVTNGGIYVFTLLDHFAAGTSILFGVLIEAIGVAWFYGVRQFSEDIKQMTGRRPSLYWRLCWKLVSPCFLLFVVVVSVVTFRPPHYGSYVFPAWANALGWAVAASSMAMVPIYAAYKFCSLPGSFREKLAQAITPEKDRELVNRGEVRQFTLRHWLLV
Chain of Muscarinic acetylcholine receptor M3 (P20309 whole entry): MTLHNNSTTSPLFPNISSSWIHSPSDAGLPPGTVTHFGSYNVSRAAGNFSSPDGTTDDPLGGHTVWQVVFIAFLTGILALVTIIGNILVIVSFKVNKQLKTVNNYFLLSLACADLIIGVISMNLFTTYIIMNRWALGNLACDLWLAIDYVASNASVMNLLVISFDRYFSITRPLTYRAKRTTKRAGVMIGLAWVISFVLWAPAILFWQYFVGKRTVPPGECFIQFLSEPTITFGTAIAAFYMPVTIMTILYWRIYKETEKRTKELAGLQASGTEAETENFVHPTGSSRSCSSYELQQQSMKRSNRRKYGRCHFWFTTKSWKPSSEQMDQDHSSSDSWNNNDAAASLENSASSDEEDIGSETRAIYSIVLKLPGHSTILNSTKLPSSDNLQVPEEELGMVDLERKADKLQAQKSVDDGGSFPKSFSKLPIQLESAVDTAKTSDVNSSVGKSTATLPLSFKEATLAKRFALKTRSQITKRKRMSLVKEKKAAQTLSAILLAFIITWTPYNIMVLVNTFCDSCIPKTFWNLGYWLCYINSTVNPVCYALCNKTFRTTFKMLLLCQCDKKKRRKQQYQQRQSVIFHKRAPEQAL
Chain of Histamine H3 receptor (Homo sapiens) (Q9Y5N1 whole entry, looked up): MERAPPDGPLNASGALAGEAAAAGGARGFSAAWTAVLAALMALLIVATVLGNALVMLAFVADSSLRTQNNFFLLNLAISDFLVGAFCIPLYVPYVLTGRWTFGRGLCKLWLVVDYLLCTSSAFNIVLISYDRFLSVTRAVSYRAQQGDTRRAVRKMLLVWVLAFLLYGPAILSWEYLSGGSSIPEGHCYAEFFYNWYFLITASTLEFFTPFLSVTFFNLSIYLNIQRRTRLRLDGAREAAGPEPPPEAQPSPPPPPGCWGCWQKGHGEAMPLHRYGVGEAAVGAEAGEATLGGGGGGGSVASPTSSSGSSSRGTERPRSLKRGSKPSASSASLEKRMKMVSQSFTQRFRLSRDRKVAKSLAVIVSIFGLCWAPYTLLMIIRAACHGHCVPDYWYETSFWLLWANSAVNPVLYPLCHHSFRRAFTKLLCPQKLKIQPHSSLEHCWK
Chain of Histamine H1 receptor (Homo sapiens) (P35367 whole entry, looked up): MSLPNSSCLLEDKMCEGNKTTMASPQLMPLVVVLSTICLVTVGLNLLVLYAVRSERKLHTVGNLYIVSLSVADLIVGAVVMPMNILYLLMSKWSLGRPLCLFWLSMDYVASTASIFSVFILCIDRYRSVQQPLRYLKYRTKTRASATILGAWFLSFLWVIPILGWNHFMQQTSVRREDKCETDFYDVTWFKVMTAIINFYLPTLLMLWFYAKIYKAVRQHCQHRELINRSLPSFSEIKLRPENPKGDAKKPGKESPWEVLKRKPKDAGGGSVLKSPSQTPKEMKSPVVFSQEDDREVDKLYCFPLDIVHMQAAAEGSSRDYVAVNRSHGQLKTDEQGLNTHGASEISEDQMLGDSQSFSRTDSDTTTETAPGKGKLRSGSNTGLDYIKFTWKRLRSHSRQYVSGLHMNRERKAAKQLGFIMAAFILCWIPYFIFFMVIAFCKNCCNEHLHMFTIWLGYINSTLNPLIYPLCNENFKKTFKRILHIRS

IC50 (Cannabinoid receptor 1): > 10 µM
IC50 (Adenosine receptor A2b): > 10 µM
IC50 (D(2) dopamine receptor): > 10 µM
IC50 [1]: > 10 µM
IC50 [2]: > 10 µM
IC50 [3]: > 10 µM
IC50 (Adenosine receptor A1): > 10 µM
IC50 [4]: > 10 µM
IC50 [5]: > 10 µM
IC50 [6]: > 10 µM
IC50 (Transporter): > 10 µM
IC50 [7]: > 10 µM
IC50 (Cannabinoid receptor 2): > 10 µM
IC50 [8]: > 10 µM
IC50 [9]: > 10 µM
IC50 (D(1A) dopamine receptor): > 10 µM
SMILES: CN(C)CC(c1ccc(O)cc1)C1(O)CCCCC1 (stereo unspecified) [CAS_386750-22-7]
